Molecular target: T1, NKA receptor (Mus musculus, UniProt P30549)
T1 construct: contractions of the urinary bladder in the anaesthetized mouse; from tissue; host or cells: urinary bladder of the anaesthetized animal, in vivo
T1 sequence (P30549 1-384): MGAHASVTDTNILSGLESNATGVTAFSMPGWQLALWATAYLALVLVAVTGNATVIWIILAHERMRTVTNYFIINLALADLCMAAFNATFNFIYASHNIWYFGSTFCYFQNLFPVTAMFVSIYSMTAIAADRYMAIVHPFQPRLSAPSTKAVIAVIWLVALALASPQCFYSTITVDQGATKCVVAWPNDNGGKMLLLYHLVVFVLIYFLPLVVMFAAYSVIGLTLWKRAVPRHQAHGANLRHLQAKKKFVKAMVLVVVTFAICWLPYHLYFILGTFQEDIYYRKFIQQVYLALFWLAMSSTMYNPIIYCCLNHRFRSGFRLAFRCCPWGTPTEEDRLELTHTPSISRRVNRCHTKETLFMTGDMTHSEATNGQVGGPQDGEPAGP
Assay: in vivo inhibition of agonist [betaAla8]NKA(4-10)-induced contractions of the urinary bladder after intravenous administration
Settings: anaesthetized mouse, 10 nmol/Kg i.v.
Description: The capability of the compounds of the present invention to interact as agonists or antagonists with the neurokynin A (NKA) receptor has been valued in a in vitro test using the pulmonary artery of a rabbit (RPA) (Rovero et al., Neuropeptides, 1989, 13, 263-270) and their activity was determined as pKB ([…] of the dissociation constant), as described in Jenkinson et al., TiPS, 12, 53-56, 1991. For example, compound 2 has shown a pKB =8.67. The capability of the products of the present invention to interact as agonists or antagonists with NKA receptor has been valued in vivo as capability, after intravenous administration,to inhibit the agonist [betaAla^8 ] NKA (4-10)-induced contractions of the urinary bladder in the anaesthetized mouse, as described in Maggi et al., J. Pharmacol. Exp. Ther., 1991, 257, 1172. Compound 1, e.g., causes, at dose of 10 nmol/Kg i.v., an inhibitory effect of 50-70%, as it has been valued at different times. The effect lasts over a period of more than 3 hours.

- duration of the inhibitory effect: more than 3 hours
- inhibitory effect on [betaAla8]NKA(4-10)-induced contractions of the urinary bladder (valued at different times): 50-70%
Substance: cyclo([Asn(β-D-Glc)-Asp-Trp-Phe-Dap-Leu]cyclo(2β-5β)) [Compound 1]

Reference: patent publication US6150325A, “Bicyclic tachykinins antagonists, preparation thereof and their use in pharmaceutical compositions” (A. Menarini Industrie Farmaceutiche Riunite S.r.l., priority 1995, dated 2000)
